{
  "source": "PubChem BioAssay AID1013",
  "about": "(Columbia University Molecular Screening Center, 2008)",
  "note": "Calls of active or inactive are those of the source. The rule behind the calls is not given here.",
  "data": [
    {"assay": "inhibitors of TNFa-induced VCAM1 expression, confirmation, imaging, TNFa stimulus, retest and dose response (AID 1013);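 for cell count: compound on cells 1 h before TNFa then 24 h more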", "details": "TNFa-stimulated cells, VCAM1 expression imaging; at 2 µM; stronger effect = higher value", "values": [
      {"compound": "O=C(N/N=C/c1ccc[nH]1)c1sc2ccccc2c1Cl", "inhibition": "13.1% (inactive)"},
      {"compound": "O=C1CC(N2CCN(Cc3ccc4c(c3)OCO4)CC2)C(=O)N1Cc1ccc(N2CCCC2=O)cc1", "note": "(centres undefined)", "inhibition": "-5.2% (inactive)"},
      {"compound": "O=C1CC(N2CCN(Cc3ccc4c(c3)OCO4)CC2)C(=O)N1c1ccccc1", "note": "(centres undefined)", "inhibition": "-11.2% (inactive)"},
      {"compound": "COC(=O)c1ccccc1NC(NC(=O)c1ccco1)C(=O)c1ccc(C)cc1", "note": "(centres undefined)", "inhibition": "-5.6% (inactive)"},
      {"compound": "O=C(NCc1ccco1)C1CC(=O)N(c2ccc(F)cc2)C1", "note": "(centres undefined)", "inhibition": "6% (inactive)"},
      {"compound": "CC1=C(C#N)C(Nc2cccc(C)n2)(C(F)(F)F)C(=O)N1", "note": "(centres undefined)", "inhibition": "-1% (inactive)"},
      {"compound": "CCOC(=O)Cc1csc(SCC(=O)/C(C#N)=C(\\C)N)n1", "inhibition": "3.4% (inactive)"},
      {"compound": "O=C(CCCCCN1C(=O)c2ccccc2C1=O)Nc1nccs1", "inhibition": "-4.8% (inactive)"},
      {"compound": "COc1cccc(C(=O)Nc2cccc(-c3nc4ncccc4o3)c2C)c1", "inhibition": "2.2% (inactive)"},
      {"compound": "CCOC(=O)C1=C(CSc2nc3c(cc2C#N)CN(C)CC3)OC(N)=C(C#N)C1c1ccccc1", "note": "(centres undefined)", "inhibition": "-5.4% (inactive)"},
      {"compound": "COc1ccc(Oc2cc(NC(=O)c3nn(C)cc3[N+](=O)[O-])cc([N+](=O)[O-])c2)cc1", "inhibition": "74.7% (inactive)"},
      {"compound": "COc1cc2c3c(c1OC)-c1cc(O)ccc1CC3NCC2", "note": "(centres undefined)", "inhibition": "-7.7% (inactive)"},
      {"compound": "Cc1ccc(S(=O)(=O)Cn2nnnc2C(C(C)C)N2CCN(c3nc4ccccc4s3)CC2)cc1", "note": "(centres undefined)", "inhibition": "-0.6% (inactive)"},
      {"compound": "O=C(CN1CCCCCC1=O)OCc1ncc(-c2ccccc2)o1", "inhibition": "9.7% (inactive)"},
      {"compound": "OCCN=C(c1ccccc1)C12CN3CN(CN(C3)C1)C2", "inhibition": "-1.2% (inactive)"},
      {"compound": "CC(=NCCCO)c1c(O)n(Cc2ccccc2)c(=O)[nH]c1=O", "inhibition": "-13.3% (inactive)"},
      {"compound": "COc1cccc(C(=O)COc2cccc(NC(=O)c3cccc([N+](=O)[O-])c3)c2)c1", "inhibition": "1.6% (inactive)"},
      {"compound": "C(=N\\Nc1nc2ccccc2s1)/c1cccs1", "inhibition": "5.1% (inactive)"},
      {"compound": "Cc1ccc(N/N=C/c2ccc(N3CCOCC3)cc2)cc1C", "inhibition": "-4.8% (inactive)"},
      {"compound": "CCOc1ccccc1/C=N/Nc1ccccc1[N+](=O)[O-]", "inhibition": "5.1% (inactive)"},
      {"compound": "Cc1csc(NC(=O)CSc2nnc(-c3ccc(S(=O)(=O)N4CCCC4)cc3)o2)n1", "inhibition": "12.9% (inactive)"},
      {"compound": "CCn1c(=O)cc(OCC(=O)NCc2ccco2)c2ccccc21", "inhibition": "-6.7% (inactive)"},
      {"compound": "CSC1=NCCN1C(=O)Cc1ccc(Cl)cc1", "inhibition": "-11.8% (inactive)"},
      {"compound": "O=C1C(Cc2ccccc2)NC(=S)N1c1ccccc1", "note": "(centres undefined)", "inhibition": "9.6% (inactive)"},
      {"compound": "CCCOC(=O)C1C2C=C[C@]3(CN(CCc4ccccc4)C(=O)[C@H]13)O2", "note": "(some centres undefined)", "inhibition": "4.5% (inactive)"},
      {"compound": "c1ccc(-c2nnc(CSc3nncs3)o2)cc1", "inhibition": "-12% (inactive)"},
      {"compound": "CCOC1=NC(C(=O)O)c2ccccc2/C(=C(/C)Cl)N1", "note": "(centres undefined)", "inhibition": "7.8% (inactive)"},
      {"compound": "CCOc1ccc(C=O)cc1CN1CCCCC1", "inhibition": "1.5% (inactive)"},
      {"compound": "C=C(C)c1cccc(C(C)(C)NC(=O)Nc2ncccn2)c1", "inhibition": "-2.7% (inactive)"},
      {"compound": "CC(C)C(=O)N1CCN(c2nc(-c3ccccc3)c3c(c2C#N)CC(C)(C)OC3)CC1", "inhibition": "5.1% (inactive)"},
      {"compound": "Cc1cc(C(=O)NN=C2C3CC4CC(C3)CC2C4)c2ccccc2n1", "inhibition": "-1.3% (inactive)"},
      {"compound": "CO/N=C/C(=N\\Nc1ccc(C)cc1)C(=O)c1ccc(OC)cc1", "inhibition": "29% (inactive)"},
      {"compound": "COc1ccc(-c2cc3ccc(OCc4nn[nH]n4)cc3oc2=O)cc1OC", "inhibition": "-18.3% (inactive)"},
      {"compound": "CSc1nnc2n(-c3ccccc3)c(=O)c3c4c(sc3n12)CCC4", "inhibition": "-8.1% (inactive)"},
      {"compound": "CC(C)(CO)NC(=O)CCCOc1ccc(Cl)cc1Cl", "inhibition": "-18.9% (inactive)"},
      {"compound": "Cc1cc(C)cc(OCCCCCNCCO)c1", "inhibition": "-9.9% (inactive)"},
      {"compound": "Cc1cc(C)cc(OCc2nnc(SCC(=O)N3CCN(c4ccccc4)CC3)o2)c1", "inhibition": "-2% (inactive)"},
      {"compound": "C=CCn1c(N2CCCC2)nc2c1c(=O)[nH]c(=O)n2C", "inhibition": "7.9% (inactive)"},
      {"compound": "COc1cccc(/C=N/Nc2nc(Nc3ccccc3)nc(-n3nc(C)cc3C)n2)c1O", "inhibition": "-11.8% (inactive)"},
      {"compound": "CCCOc1ccc(/C(O)=C2/C(=O)C(=O)N(CCOC)C2c2cccnc2)cc1", "note": "(centres undefined)", "inhibition": "8.7% (inactive)"},
      {"compound": "COc1cc(NC(=O)c2ccc(COCC(F)(F)F)o2)cc(OC)c1OC", "inhibition": "20.7% (inactive)"},
      {"compound": "NC1=CC(=O)c2cccc3cccc1c23", "inhibition": "6.1% (inactive)"},
      {"compound": "CC(=O)c1cccc(S(=O)(=O)N2CCC(n3nnc4cc(F)ccc43)CC2)c1", "inhibition": "3.2% (inactive)"},
      {"compound": "CCC(=O)Nc1cccc(NC(=O)c2cc3ccccc3o2)c1", "inhibition": "-3.1% (inactive)"},
      {"compound": "O=C(CSc1nc2ccccc2s1)NNC(=S)Nc1ccc(Br)cc1", "inhibition": "1.8% (inactive)"},
      {"compound": "COc1ccc2[nH]c(=O)c(CN(C(=O)c3ccncc3)C(C)C)cc2c1", "inhibition": "-5.2% (inactive)"},
      {"compound": "NC(=S)N/N=C/c1ccc(-c2cc(Cl)ccc2Cl)o1", "inhibition": "34.6% (inactive)"},
      {"compound": "Cc1cccnc1Nc1nc(-c2ccccn2)cs1", "inhibition": "-2.3% (inactive)"},
      {"compound": "CCOc1ccc(-n2c(SCC(=O)Nc3ccc(OC)cc3)nc3c(c2=O)SCC3)cc1", "inhibition": "-17% (inactive)"},
      {"compound": "O=C(Oc1csc(=S)n1C(=O)c1ccccc1)c1ccccc1", "inhibition": "4% (inactive)"},
      {"compound": "CCC(=O)Nc1cccc(C(=O)/C=C/c2cc(Br)ccc2OC)c1", "inhibition": "10% (inactive)"},
      {"compound": "Nc1cc(=O)nc(SCc2ccccc2)n1Cc1ccco1", "inhibition": "7% (inactive)"},
      {"compound": "COc1ccc(-c2c/c(=N\\c3nc(-c4ccccc4)c(C)s3)c3ccccc3o2)cc1O", "inhibition": "34.3% (inactive)"},
      {"compound": "COC(=O)c1ccc(-n2nnnc2SCC(=O)N2CCCCC2)cc1", "inhibition": "0.2% (inactive)"},
      {"compound": "CC(=O)Nc1ccc(NC2(C)C(=O)c3ccccc3C2=O)cc1", "inhibition": "-3.5% (inactive)"},
      {"compound": "Cc1c(Cl)cccc1-n1ccnc1SCC(=O)O", "inhibition": "-7.8% (inactive)"},
      {"compound": "CN1C(=O)N(C)C(=O)C2(Cc3ccccc3N3CCOCC32)C1=O", "note": "(centres undefined)", "inhibition": "6.4% (inactive)"},
      {"compound": "O=C1Nc2ccc(S(=O)(=O)N3CCOCC3)c3cccc1c23", "inhibition": "-7.2% (inactive)"},
      {"compound": "Oc1ccc(N2CCN(c3ncnc4sc5c(c34)CCC5)CC2)cc1", "inhibition": "10.1% (inactive)"},
      {"compound": "O=C(Cc1ccc(-n2cccc2)cc1)NC1CCCCCC1", "inhibition": "5.8% (inactive)"},
      {"compound": "Cc1ccc(-n2nc3ccc(NC(=O)/C=C/c4ccco4)cc3n2)cc1C", "inhibition": "14% (inactive)"},
      {"compound": "Clc1ccc(-n2ncc3c(NCc4ccc5c(c4)OCO5)ncnc32)cc1", "inhibition": "5.1% (inactive)"},
      {"compound": "CCOC(=O)c1cnc(-n2nc(C)cc2C)nc1NCc1ccccc1", "inhibition": "7.9% (inactive)"},
      {"compound": "O=C(O)C1CCC(N2C(=O)C3CCCCC3C2=O)CC1", "note": "(centres undefined)", "inhibition": "12.7% (inactive)"},
      {"compound": "Cc1nn(-c2cc(C)c3ccccc3n2)c2c1C1C(C2)C1(C)C", "note": "(centres undefined)", "inhibition": "-11.4% (inactive)"},
      {"compound": "COc1ccc(CC(=O)Nc2ccc(-c3noc(-c4cccc(OC)c4)n3)cc2)cc1", "inhibition": "5.5% (inactive)"},
      {"compound": "OCCNCC(O)Cn1ccc2ccccc21", "note": "(centres undefined)", "inhibition": "-5.6% (inactive)"},
      {"compound": "CCOc1cc(/C=C2/C(=O)N(c3ccccc3)N=C2C)ccc1OC(=O)c1ccco1", "inhibition": "3.9% (inactive)"},
      {"compound": "COc1ccc(S(=O)(=O)NC(CC(=O)NCc2ccco2)C(C)C)cc1", "note": "(centres undefined)", "inhibition": "4.6% (inactive)"},
      {"compound": "COc1ccc(-c2nc(-c3ccc(NC(=O)c4ccc(Br)o4)cc3)no2)cc1OC", "inhibition": "11.9% (inactive)"},
      {"compound": "O=C(c1ccc2snnc2c1)N1CCSCC1", "inhibition": "8.5% (inactive)"}
    ]},
    {"assay": "inhibitors of TNFa-induced VCAM1 expression, confirmation, imaging, TNFa stimulus, retest and dose response (AID 1013);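 for cell count: compound on cells 1 h before TNFa then 24 h more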", "details": "TNFa-stimulated cells, VCAM1 expression imaging; cell count; at 10 µM; stronger effect = lower value", "units": {"cell count": "%"}, "values": [
      {"compound": "COc1ccc(Oc2cc(NC(=O)c3nn(C)cc3[N+](=O)[O-])cc([N+](=O)[O-])c2)cc1", "cell count": 114},
      {"compound": "NC(=S)N/N=C/c1ccc(-c2cc(Cl)ccc2Cl)o1", "cell count": 90.8},
      {"compound": "COc1ccc(-c2c/c(=N\\c3nc(-c4ccccc4)c(C)s3)c3ccccc3o2)cc1O", "cell count": 98}
    ]}
  ]
}
